MTD and concentration data for 3 molecules are collected here from patent publication EP0117260A1, “4-Aminobutyric acid derivatives, a process for the preparation thereof and a pharmaceutical composition containing said derivatives” (priority 1983, dated 1984).

A short description of data set [1]: Maximum tolerance (death observed 48 hours after administration). The settings on record: mouse, in vivo; mice; dose just smaller than the dose inducing death, observed 48 hours after the administration.
Data set [2] is described as follows: Level of hopanthenic acid in blood plasma after oral administration (GC-MS). The format is in vivo, SD-male rats. Conditions: rat, 389.4 umol/kg, 389.4 µmole/kg, rats, n=4, read-out: Level of hopanthenic acid in the blood plasma (average ± S.D.). The method, then:
SD-male rats, weighing about 200 g, 7 weeks age, having been fasted overnight (one group: 4 rats) were used. To each rat was orally administered a suspension (2 ml) of a test compound in a 0.5 % carboxymethyl cellulose solution with a stomach sonde (dose of test compound: […], corresponding to 100 mg/kg of calcium hopanthenate).
One or two hours after the aministration, the rats were killed by cutting whole carotid arteries, and the blood was collected. The blood of each rat was centrifuged (2,800 r.p.m., 15 minutes) to separate blood plasma. Concentration of hopanthenic acid in the blood plasma (0.1 ml) was measured by gas chromatography and mass spectrometry.

The nature of data set [3]: Level of hopanthenic acid in the cerebrum after oral administration (GC-MS). The data set is classed as in vivo, SD-male rats. Conditions: rat, 389.4 umol/kg, 389.4 µmole/kg, rats, n=4, read-out: Level of hopanthenic acid in the cerebrum (average ± S.D.). The procedure: SD-male rats, weighing about 200 g, 7 weeks age, having been fasted overnight (one group: 4 rats) were used. To each rat was orally administered a suspension (2 ml) of a test compound in a 0.5 % carboxymethyl cellulose solution with a stomach sonde (dose of test compound: 389.4 #mole/kg, corresponding to 100 mg/kg of calcium hopanthenate). Two or three hours after the administration, the cerebrum was taken out and washed with physiological saline solution. To the cerebrum was added 9 times volume of water, and the mixture was homogenated with a homogenizer for one minute under ice-cooling and then centrifuged at 10,000 r.p.m. at 4°C for one hour. Concentration of hopanthenic acid in the supernatant (1 ml, corresponding to 0.1 g of the cerebrum) was measured by gas chromatography and mass spectrometry. The test compounds were the same as used in Experiment 1.

Setting [4] is: Two hours after the administration.

`CC(C)C(=O)OCC(C)(C)[C@@H](O)C(=O)NCCCC(=O)O` yielded an MTD at 48 h in data set [1] of more than 2000 mg/kg.
For `CC(C)CC(=O)OCC(C)(C)[C@@H](O)C(=O)NCCCC(=O)O` [Compound No. 2, D-4-[N-(4-Isovaleryloxy-3,3-dimethyl-2-hydroxy-n-butyryl)-amino]-n-butyric acid], the MTD at 48 h in data set [1] was more than 2000 mg/kg.
With `CC(C)(CO)[C@@H](O)C(=O)NCCCC(=O)O` [Control, Calcium D-4-[N-(2,4-dihydroxy-3,3-dimethyl-n-butyryl)amino]-n-butyrate], the concentration at 1 h in data set [2] (One hour after the administration) turned out to be 19.4 ± 1.9 µg/mL. The values for the concentration at 2 h in data set [2] (setting [4]) and in data set [3] (setting [4]) were 14.2 ± 1.6 µg/mL and 700 ± 110 ng/g, respectively. Moreover, the concentration at 3 h in data set [3] (Three hours after the administration) worked out at 370 ± 70 ng/g.

As usually defined, the MTD is the largest dose that counted as tolerated.
